Measurements published in BigSolDB 2.1.

CC[C@H](CC[C@@H](C)[C@H]1CC[C@H]2[C@@H]3CC=C4C[C@@H](O)CC[C@]4(C)[C@H]3CC[C@]12C)C(C)C
solubility (mole fraction)
Settings | in acetone | in ethanol | in ethyl acetate | in methanol | in n-hexane
278.15 K | 0.00274 | 0.0013 | 0.00447 | 0.000136 | 0.000862
283.15 K | 0.00322 | 0.00158 | 0.0053 | 0.000167 | 0.00103
288.15 K | 0.00379 | 0.0019 | 0.00627 | 0.000205 | 0.00123
293.15 K | 0.00446 | 0.00229 | 0.00738 | 0.000248 | 0.00147
298.15 K | 0.00525 | 0.00274 | 0.00872 | 0.000299 | 0.00173
303.15 K | 0.00616 | 0.00328 | 0.0103 | 0.000357 | 0.00205
308.15 K | 0.00724 | 0.00389 | 0.012 | 0.000427 | 0.0024
313.15 K | 0.00852 | 0.0046 | 0.014 | 0.000509 | 0.0028
318.15 K | 0.01 | 0.0054 | 0.0163 | 0.000606 | 0.00326
323.15 K | 0.0118 | 0.00632 | 0.019 | 0.00072 | 0.00377
328.15 K | 0.0139 | 0.00738 | – | 0.000855 | 0.00436
333.15 K | – | 0.00856 | – | – | 0.005
